“Also recorded” adds a separate entry of the source. Read-outs that look alike come from different tables or passages of the source.
Key:
[1] = tested on: insulin receptor β subunit; experiment: Insulin-induced proteolysis of insulin receptor β subunit, quantitative immunoblot of membranes and cytosol; format: cell-based; conditions: 3T3-C2 fibroblasts, 4 h; for β' FRAGMENT % IN CYTOSOL: normalized to maximum β' after eight hours of insulin
Protocol: Cell monolayers were scraped into 10 mM triethanolamine, 10 mM acetic acid, 1 mM EDTA, pH 7.4. The cells were disrupted in a Dounce homogenizer and subjected to centrifugation at 265,000×g, 70 min. at 4° C. The pellet was retained as cellular membranes and the supernatant was collected as the cytosolic fraction.
The cellular membranes were detergent-extracted and the extracts were subjected to SDS polyacrylamide gel electrophoresis on a 7.5% gel to resolve the intact β subunit (approximate mass 92 kDa).
Transfer of the cellular proteins from the 7.5% acrylamide gel to nitrocellulose was conducted at 18 V for 18 h, and the intact β subunit and β' fragment were detected as previously described (Knutson and Buck, Arch. Biochem. Biophys., 285:197-204, 1991). Briefly, following transfer, the nitrocellulose was blocked by incubation for 1 h with blot buffer (50 mM Tris, 0.2M NaCl, pH 8) containing 4% non-fat dry milk. Following blocking, the nitrocellulose was incubated with an anti-peptide antibody which specifically recognizes the carboxy-terminal 16 amino acid residues of the insulin receptor β subunit. This domain is contained in both the intact β subunit and the β' fragment. This antibody has been fully characterized and affinity purified (Knutson and Buck, ibid.). The antibody concentration was 5 μg/ml in blot buffer containing 1% non-fat dry milk, and the incubation was allowed to proceed for 2 h at room temperature. The unbound antibody was then removed from the nitrocellulose by 3 washes with blot buffer containing 1% non-fat dry milk and 0.05% Tween-20. The nitrocellulose was then incubated with ^125 I-protein A, 0.1 μCi/ml, with the blot buffer containing 1% non-fat dry milk, for 1 h at room temperature. Following a final 5 washes of the nitrocellulose with blot buffer-1% dry milk-0.05% Tween-20, the nitrocellulose was exposed to X-ray film. Autoradiographic intensities were quantitated by densitometric scanning.
Cytosolic β' fragment (approximate mass 61 kDa) was isolated by subjecting the […] to high speed centrifugation, removing the supernatant, subjecting the supernatant to SDS polyacrylamide gel electrophoresis on a 7.5% gel, transferring the cytosolic proteins to nitrocellulose, and detecting the cytosolic β' fragment by quantitative immunoblot (Western blot) analysis as described above. The β' fragment data was normalized to the maximum level of β' fragment detected after eight hours of insulin treatment. The above-described procedure is as described in Knutson, V. P., J. Biol. Chem., 266:15656-15662 (1991).

[2] = tested on: 3T3-L1 adipocytes; experiment: Insulin resistance in adipocytes: 14C-glucose incorporation into cellular lipid (lipogenesis); format: cell-based; conditions: for insulin resistance (insulin stimulation of lipogenesis after preincubation): 3T3-L1 adipocytes, 9 h preincubation with insulin 1.7 μM alone or with E-64 100 μM; for cpm INCORPORATED: 9 h pretreatment (insulin 1.7 μM alone, or insulin 1.7 μM + E-64 100 μM); for FOLD STIMULATION: pretreatment as above
Protocol: Intact monolayers of 3T3-L1 adipocytes were preincubated in the absence of insulin (control) or for nine hours in the presence of 1.7 μM insulin to induce cellular insulin resistance. […] Following preincubation, the treated monolayers were extensively washed to remove any insulin present from the preincubation period. The monolayers were then incubated with insulin, 0, 0.05, or 10 nM for 30 minutes, followed by the addition of 14C-glucose at a final concentration of 25 mM. Incorporation of the radiolabeled glucose proceeded for 30 minutes, after which the cells were washed, lysed, and the cellular lipids extracted into chloroform:methanol (2:1). The amount of radiolabel incorporated into the cellular lipid was then quantified by liquid scintillation counting, and the results are shown in Table 2. This assay procedure is described in Tarlow et al., J. Cell Biol., 73:332-353, 1977.

[3] = tested on: Zucker fatty rats; conditions: for SERUM TG: Zucker fatty rats
Excerpt: (§1) The injection protocol was initiated when the rats were 14 weeks old, a time when their insulin resistant state was fully manifest. Blood was drawn from the animals at intervals before the beginning of the injection schedule, and at at least one week intervals after initiating the injections. On the first day of the protocol, the fatty rats weighed an average of 416 grams.

[4] = tested on: lean Zucker rats; conditions: 2.5 mg/kg I.P. every 24 h, data not shown
Excerpt: as §1

[5] = tested on: insulin receptor β subunit; conditions: cultured cells chronically treated with high insulin; Knutson, J. Biol. Chem. 266, 1991; cited from earlier work
[6] = agent alone (insulin 1.7 μM; leupeptin 10 μg/ml; E-64 100 μM), control 100 ± 13

Row | β SUBUNIT % IN MEMBRANES [1, 6] | β' FRAGMENT % IN CYTOSOL ([1]; agent alone, control 8 ± 5) | Compound | β' FRAGMENT % IN CYTOSOL ([1]; inhibitor + insulin 1.7 μM) | insulin resistance (insulin stimulation of lipogenesis after preincubation) [2] | cpm INCORPORATED ([2]; then insulin 0 nM) | cpm INCORPORATED ([2]; then insulin 0.05 nM) | cpm INCORPORATED ([2]; then insulin 10 nM) | FOLD STIMULATION ([2]; insulin 0 nM (baseline)) | FOLD STIMULATION ([2]; insulin 0.05 nM) | FOLD STIMULATION ([2]; insulin 10 nM) | further results
1 | 143 ± 7% | Trace | CC(C)C[C@H](NC(=O)[C@H]1O[C@@H]1C(=O)O)C(=O)NCCCCN=C(N)N [E-64, L-transepoxysuccinyl-leucylamido (4-guanidino) butane] | Not detectable; also recorded: non-detectable | ameliorated | 600 cpm | 1100 cpm | 3100 cpm | 1 fold | 1.8 fold | 5.2 fold | effect on the increase in triglyceride levels found in control Zucker fatty rats ([3]; 2.5 mg/kg I.P. every 24 h): prevented the increase; effect on insulin resistant state in Zucker fatty rats ([3]; 2.5 mg/kg I.P. every 24 h, 90 days): reduced but did not reverse; SERUM TG ([3]; 2.5 mg/kg I.P. every 24 h, day 28, n = 3): 798 ± 269 mg/dL; SERUM TG ([3]; 2.5 mg/kg I.P. every 24 h, day 56, n = 3): 1045 ± 443 mg/dL; SERUM TG ([3]; 2.5 mg/kg I.P. every 24 h, day 89, n = 3): 1093 ± 301 mg/dL; SERUM TG ([3]; day -4 of protocol (before injections), n = 3): 1009 ± 157 mg/dL; effect on triglyceride levels in lean rats [4]: no effect; production of the insulin receptor fragment β' [5]: inhibited
2 | 80 ± 7% | 62 ± 6% | insulin | – | no subsequent stimulation of lipogenesis | 1600 cpm | 1900 cpm | 1800 cpm | 1 fold | 1.2 fold | 1.1 fold | β SUBUNIT % IN MEMBRANES ([1]; agent alone (insulin 1.7 μM; leupeptin 10 μg/ml; E-64 100 μM), control 100 ± 13, listed as insulin): decreased; β' FRAGMENT % IN CYTOSOL ([1]; agent alone, control 8 ± 5, listed as insulin): increased

Row | Compound | β SUBUNIT % IN MEMBRANES [1, 6] | β' FRAGMENT % IN CYTOSOL ([1]; agent alone, control 8 ± 5) | β' FRAGMENT % IN CYTOSOL ([1]; inhibitor + insulin 1.7 μM) | insulin resistance (insulin stimulation of lipogenesis after preincubation) [2] | cpm INCORPORATED ([2]; then insulin 0 nM) | cpm INCORPORATED ([2]; then insulin 0.05 nM) | cpm INCORPORATED ([2]; then insulin 10 nM) | FOLD STIMULATION ([2]; insulin 0 nM (baseline)) | FOLD STIMULATION ([2]; insulin 0.05 nM) | FOLD STIMULATION ([2]; insulin 10 nM) | further results
3 | CC(=O)N[C@@H](CC(C)C)C(=O)N[C@@H](CC(C)C)C(=O)N[C@H](C=O)CCCNC(=N)N [Leupeptin, leupeptin] | 97 ± 7% | Trace | Not detectable | – | – | – | – | – | – | – | β SUBUNIT % IN MEMBRANES ([1]; inhibitor + insulin 1.7 μM (leupeptin 10 μg/ml; E-64 100 μM)): 120 ± 17%; β SUBUNIT % IN MEMBRANES ([1]; inhibitor + insulin 1.7 μM (leupeptin 10 μg/ml; E-64 100 μM), listed as leupeptin): prevented insulin-induced loss; β' FRAGMENT % IN CYTOSOL ([1]; inhibitor + insulin 1.7 μM, listed as leupeptin): prevented generation
